From ChEMBL document CHEMBL5042493, “Enhancing monoamine oxidase B inhibitory activity via chiral fluorination: Structure-activity relationship, biological evaluation, and molecular docking study” (Eur J Med Chem, 2022)
Values belong to the compound of their own block, whether it stands above or below them.

Assays:
Homo sapiens = organism: Homo sapiens; assay: Selectivity index, ratio of IC50 for recombinant human MAO-A expressed in Sf9 cells to IC50 for recombinant human MAO-B expressed in Sf9 cells
[1] = molecular target: T1, Amine oxidase [flavin-containing] B (Homo sapiens, UniProt P27338); assay: Inhibition of recombinant human MAO-B expressed in Sf9 cells preincubated for 15 min followed by addition of benzylamine and measured after 60 min by Luminex assay
T1 sequence (P27338 whole entry): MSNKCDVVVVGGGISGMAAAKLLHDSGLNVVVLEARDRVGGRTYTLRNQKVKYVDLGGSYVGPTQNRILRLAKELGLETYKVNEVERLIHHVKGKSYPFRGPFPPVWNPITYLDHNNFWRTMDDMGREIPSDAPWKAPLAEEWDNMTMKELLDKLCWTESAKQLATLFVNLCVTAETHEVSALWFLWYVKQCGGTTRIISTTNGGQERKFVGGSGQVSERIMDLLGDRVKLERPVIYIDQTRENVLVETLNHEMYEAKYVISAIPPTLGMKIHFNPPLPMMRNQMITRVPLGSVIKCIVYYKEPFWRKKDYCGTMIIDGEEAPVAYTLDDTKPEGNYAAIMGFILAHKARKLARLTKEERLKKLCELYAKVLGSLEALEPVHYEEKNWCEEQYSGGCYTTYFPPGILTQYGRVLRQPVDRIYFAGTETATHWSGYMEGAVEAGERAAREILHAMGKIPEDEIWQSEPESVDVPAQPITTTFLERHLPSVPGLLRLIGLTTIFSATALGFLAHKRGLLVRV

[2] = molecular target: T2, Amine oxidase [flavin-containing] A (Homo sapiens, UniProt P21397); assay: Inhibition of recombinant human MAO-A expressed in Sf9 cells preincubated for 15 min followed by addition of p-tyramine and measured after 60 min by Luminex assay
T2 sequence (P21397 whole entry): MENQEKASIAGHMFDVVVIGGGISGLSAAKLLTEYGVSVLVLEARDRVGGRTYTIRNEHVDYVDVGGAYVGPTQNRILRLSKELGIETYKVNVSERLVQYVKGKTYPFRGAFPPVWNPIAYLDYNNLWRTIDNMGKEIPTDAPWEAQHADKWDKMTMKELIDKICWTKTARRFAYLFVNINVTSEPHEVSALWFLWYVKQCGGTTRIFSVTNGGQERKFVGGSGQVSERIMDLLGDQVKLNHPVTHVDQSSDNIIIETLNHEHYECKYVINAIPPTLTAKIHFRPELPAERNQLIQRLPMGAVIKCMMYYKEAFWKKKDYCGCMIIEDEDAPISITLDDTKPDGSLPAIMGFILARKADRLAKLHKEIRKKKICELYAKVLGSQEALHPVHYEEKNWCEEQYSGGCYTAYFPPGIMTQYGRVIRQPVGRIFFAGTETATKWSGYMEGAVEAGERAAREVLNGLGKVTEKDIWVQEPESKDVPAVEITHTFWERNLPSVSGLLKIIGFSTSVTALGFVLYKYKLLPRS

[3] = Cmax in Cynomolgus monkey at 1 mg/kg, iv measured upto 24 hrs; assay type: ADME, organism-based, Macaca fascicularis; parameters: route intravenous, dose 1 mg/kg, time <=24; settings: in vivo
[4] = Toxicity in MPTP-induced C57BL/6 mouse model of Parkinson's disease assessed as effect on locomotor activity by measuring rearing activity at 10 mg/kg, ip pretreated for 15 mins followed by MPTP challenge and measured after 5 days post MPTP challenge; assay type: organism-based; settings: in vivo, 120 h, time 5 day
[5] = AUC (0-t) in Sprague dawley rat at 1 mg/kg, iv measured upto 24 hrs; assay type: ADME, organism-based; parameters: route intravenous, dose 1 mg/kg, time <=24; settings: in vivo
[6] = Half life in Sprague dawley rat at 1 mg/kg, iv measured upto 24 hrs; assay type: ADME, organism-based; settings: in vivo
[7] = Cmax in Sprague dawley rat at 1 mg/kg, iv measured upto 24 hrs; assay type: ADME, organism-based; parameters: route intravenous, dose 1 mg/kg, time <=24; settings: in vivo
[8] = Half life in Cynomolgus monkey at 1 mg/kg, iv measured upto 24 hrs; assay type: ADME, organism-based, Macaca fascicularis; settings: in vivo
[9] = Half life in Sprague dawley rat at 5 mg/kg, po measured upto 24 hrs; assay type: ADME, organism-based; settings: in vivo
[10] = AUC (0-t) in Cynomolgus monkey rat at 5 mg/kg, po measured upto 24 hrs; assay type: ADME, organism-based, Macaca fascicularis; parameters: route oral, dose 5 mg/kg, time <=24; settings: in vivo
[11] = Clearance in Sprague dawley rat at 1 mg/kg, iv measured upto 24 hrs; assay type: ADME, organism-based; settings: in vivo
[12] = Oral bioavailability in Cynomolgus monkey rat at 5 mg/kg measured upto 24 hrs; assay type: ADME, organism-based, Macaca fascicularis; settings: in vivo
[13] = Volume of distribution at steady state in Cynomolgus monkey at 1 mg/kg, iv measured upto 24 hrs; assay type: ADME, organism-based, Macaca fascicularis; settings: in vivo, read-out: Vdss
[14] = Cmax in Sprague dawley rat at 5 mg/kg, po measured upto 24 hrs; assay type: ADME, organism-based; parameters: route oral, dose 5 mg/kg, time <=24; settings: in vivo
[15] = Oral bioavailability in Sprague dawley rat at 5 mg/kg measured upto 24 hrs; assay type: ADME, organism-based; settings: in vivo
[16] = AUC (0-t) in Cynomolgus monkey at 1 mg/kg, iv measured upto 24 hrs; assay type: ADME, organism-based, Macaca fascicularis; parameters: route intravenous, dose 1 mg/kg, time <=24; settings: in vivo, 24 h
[17] = AUC (0-t) in Sprague dawley rat at 5 mg/kg, po measured upto 24 hrs; assay type: ADME, organism-based; parameters: route oral, dose 5 mg/kg, time <=24; settings: in vivo
[18] = Cmax in Cynomolgus monkey rat at 5 mg/kg, po measured upto 24 hrs; assay type: ADME, organism-based, Macaca fascicularis; parameters: route oral, dose 5 mg/kg, time <=24; settings: in vivo
[19] = Volume of distribution at steady state in Sprague dawley rat at 1 mg/kg, iv measured upto 24 hrs; assay type: ADME, organism-based; settings: in vivo, read-out: Vdss
[20] = Half life in Cynomolgus monkey rat at 5 mg/kg, po measured upto 24 hrs; assay type: ADME, organism-based, Macaca fascicularis; settings: in vivo

IC50 [1]: 0.431 µM
IC50 [2]: 84.5 µM
SMILES: NC(=O)[C@@H]1C[C@H](O)CN1Cc1ccc(OCc2cccc(F)c2)cc1
Ratio IC50 (Homo sapiens): 196

IC50 [1]: 0.772 µM
IC50 [2]: 24 µM
SMILES: NC(=O)[C@@H]1C[C@@H](F)CN1Cc1ccc(OCc2cccc(F)c2)cc1
Ratio IC50 (Homo sapiens): 31

IC50 [1]: > 10 µM
SMILES: NC(=O)[C@@H]1C[C@@H](O)CN1Cc1ccc(OCc2cccc(F)c2)cc1

IC50 [1]: 2.18 µM
IC50 [2]: 42.2 µM
SMILES: C[C@@H]1C[C@@H](C(N)=O)N(Cc2ccc(OCc3cccc(F)c3)cc2)C1
Ratio IC50 (Homo sapiens): 19

IC50 [1]: 0.709 µM
IC50 [2]: 6.74 µM
SMILES: NC(=O)[C@H]1C[C@H](F)CN1Cc1ccc(OCc2cccc(F)c2)cc1
Ratio IC50 (Homo sapiens): 10

IC50 [1]: 0.082 µM
IC50 [2]: 27.5 µM
AUC(0-t) at 24 h [5]: 209 ng·h/mL
half-life [6]: 0.73 h
Cmax [7]: 174 ng/mL
half-life [9]: 0.96 h
clearance [11]: 79.1 mL/min/kg
Cmax [14]: 69.1 ng/mL
bioavailability [15]: 16.9%
AUC(0-t) at 24 h [17]: 176 ng·h/mL
Vd [19]: 4.56 L/kg
SMILES: C[C@H]1C[C@@H](C(N)=O)N(Cc2ccc(OCc3cccc(F)c3)cc2)C1
Ratio IC50 (Homo sapiens): 335

IC50 [1]: > 10 µM
SMILES: NC(=O)[C@H]1C[C@@H](F)CN1Cc1ccc(OCc2cccc(F)c2)cc1

The next lines start with the compound.

SMILES: C[C@H](NCc1ccc(OCc2cccc(F)c2)cc1)C(N)=O [SAFINAMIDE]
Cmax [3]: 1080 ng/mL
Activity [4]: Non-Toxic
AUC(0-t) at 24 h [5]: 253 ng·h/mL
half-life [6]: 1.03 h
Cmax [7]: 282 ng/mL
half-life [8]: 2.74 h
half-life [9]: 1.02 h
AUC(0-t) at 24 h [10]: 13100 ng·h/mL
clearance [11]: 65.5 mL/min/kg
bioavailability [12]: 111%
Vd [13]: 7.15 L/kg
Cmax [14]: 423 ng/mL
bioavailability [15]: 63.2%
AUCt [16]: 2120 ng·h/mL
AUC(0-t) at 24 h [17]: 795 ng·h/mL
Cmax [18]: 1970 ng/mL
Vd [19]: 4.21 L/kg
half-life [20]: 4.6 h

SMILES: Cc1cc(OCc2cccc(F)c2)ccc1CN1C[C@@H](F)C[C@H]1C(N)=O
Ratio IC50 (Homo sapiens): 25
IC50 [1]: 0.82 µM
IC50 [2]: 20.5 µM

SMILES: NC(=O)[C@@H]1CCCN1Cc1ccc(OCc2cccc(F)c2)cc1
Ratio IC50 (Homo sapiens): 168
AUC(0-t) at 24 h [5]: 347 ng·h/mL
half-life [6]: 0.37 h
Cmax [7]: 809 ng/mL
half-life [9]: 1.27 h
clearance [11]: 47.1 mL/min/kg
Cmax [14]: 163 ng/mL
bioavailability [15]: 16.3%
AUC(0-t) at 24 h [17]: 284 ng·h/mL
Vd [19]: 1.11 L/kg

SMILES: NC(=O)[C@@H]1C[C@@H](F)CN1Cc1ccc(OCc2cccc(F)c2)cc1F
Ratio IC50 (Homo sapiens): 13
IC50 [1]: 2.19 µM
IC50 [2]: 28.2 µM

SMILES: NC(=O)[C@@H]1C[C@H](F)CN1Cc1ccc(OCc2cccc(F)c2)cc1F
Ratio IC50 (Homo sapiens): 979
IC50 [2]: 29.4 µM

SMILES: Cc1cc(OCc2cccc(F)c2)ccc1CN1C[C@H](F)C[C@H]1C(N)=O
IC50 [1]: > 10 µM

SMILES: NC(=O)[C@@H]1C[C@H](F)CN1Cc1ccc(OCc2cccc(F)c2)cc1Cl
Ratio IC50 (Homo sapiens): 37
IC50 [1]: 0.14 µM
IC50 [2]: 5.18 µM

SMILES: NC(=O)[C@@H]1C[C@@H](F)CN1Cc1ccc(OCc2cccc(F)c2)cc1Cl
IC50 [1]: > 10 µM
